Experimental findings from US9845322B2 (Hoffmann-La Roche Inc., priority 2016, dated 2017) are described below.

Structures are written as SMILES.

As usually defined, the IC50 is the point on the concentration scale where inhibition reaches its midpoint.

One experiment has as its system HBsAg secretion in HepG2.2.15 cells. In words: HBsAg assay (chemiluminescence immunoassay of secreted HBsAg in culture supernatant). Format: cell-based, HBV. Particulars: HepG2.2.15 cells; concentration at which HBsAg secretion was reduced by 50% compared to the no drug control; read-out: IC50 (HBsAg assay). Summed up:
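IC50 taken from dose-response curves as the concentration halving secreted HBsAg relative to DMSO control. Measured by chemiluminescence immunoassay of culture supernatant from constitutively HBV-expressing HepG2.2.15 cells, seeded at 1.5×10^4/well in duplicate and exposed to three-fold serial compound dilutions at 1% final DMSO.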
With `CC1c2cnc(-c3ncccn3)nc2CCN1c1cc(F)c(F)c(OCCCCCCN)c1` (stereo not shown) [Example 59, 6-[2,3-difluoro-5-(5-methyl-2-pyrimidin-2-yl-7,8-dihydro-5H-pyrido[4,3-d]pyrimidin-6-yl)phenoxy]hexan-1-amine], the IC50 amounted to 75 nM.

Turning to `COc1cc(N2CCc3nc(-c4ncccn4)ncc3C2C)cc(Cl)c1F` (single isomer, unassigned; (+)) [Example 42, (+)-6-(3-chloro-4-fluoro-5-methoxy-phenyl)-5-methyl-2-pyrimidin-2-yl-7,8-dihydro-5H-pyrido[4,3-d]pyrimidine], the IC50 is 3250 nM.

With `CC1c2cnc(-c3ccccn3)nc2CCN1c1ccc([N+](=O)[O-])cc1` (single isomer, unassigned; (-)) [Example 3, (−)-5-methyl-6-(4-nitrophenyl)-2-(2-pyridyl)-7,8-dihydro-5H-pyrido[4,3-d]pyrimidine], the concentration for half-maximal inhibition (IC50) came to 115 nM.

For the molecule `CCC1c2cnc(-c3ccccn3)nc2CCN1c1cc(F)c(F)c(OC)c1` (single isomer, unassigned; (+)) [Example 10, (+)-6-(3,4-difluoro-5-methoxy-phenyl)-5-ethyl-2-(2-pyridyl)-7,8-dihydro-5H-pyrido[4,3-d]pyrimidine], the IC50 is 21900 nM.

Consider `CC1c2cnc(-c3ncccn3)nc2CCN1c1cc(N(C)C)cc(F)n1` (single isomer, unassigned; (+)) [Example 206, (+)-2-fluoro-N,N-dimethyl-6-[5-methyl-2-pyrimidin-2-yl-7,8-dihydro-5H-pyrido[4,3-d]pyrimidin-6-yl]pyridin-4-amine], for which the IC50 was found to be 285 nM.

For `COc1cc(N2CCc3nc(-c4ncccn4)ncc3C2C)cc(F)c1F` (single isomer, unassigned; (+)) [Example 16, (+)-6-(3,4-difluoro-5-methoxy-phenyl)-5-methyl-2-pyrimidin-2-yl-7,8-dihydro-5H-pyrido[4,3-d]pyrimidine], the IC50 was 1520 nM.

The experiment is the same for the next values; noted with them: Hepatitis B virus, HepG2.2.15, HepG2.2.15 cells; concentration at which HBsAg secretion was reduced by 50% compared to the no drug control; read-out: IC50 (HBsAg assay).
Take `CC(=O)N1CCN(CCCOc2cc(N3CCc4nc(-c5ncccn5)ncc4C3C)cc(F)c2F)CC1` (stereo not shown) [Example 109, 1-[4-[3-[2,3-difluoro-5-(5-methyl-2-pyrimidin-2-yl-7,8-dihydro-5H-pyrido[4,3-d]pyrimidin-6-yl)phenoxy]propyl]piperazin-1-yl]ethanone]: the IC50 amounted to 80 nM.

Regarding `CC1c2cnc(-c3ncccn3)nc2CCN1c1cc(F)nc(OCC(F)F)c1` (stereo not shown) [Example 150, 6-[2-(2,2-difluoroethoxy)-6-fluoro-4-pyridyl]-5-methyl-2-pyrimidin-2-yl-7,8-dihydro-5H-pyrido[4,3-d]pyrimidine], the IC50 amounted to 49 nM.

As for `CC1c2cnc(-c3ncccn3)nc2CCN1c1cc(F)cc(C(=O)O)c1` (stereo not shown) [Example 176, 3-fluoro-5-(5-methyl-2-pyrimidin-2-yl-7,8-dihydro-5H-pyrido[4,3-d]pyrimidin-6-yl)benzoic acid], the IC50 amounted to 27800 nM.

As for `CC1c2cnc(-c3ncccn3)nc2CCN1c1cc(F)c(F)c(OCCC[S+](C)[O-])c1` (stereo not shown) [Example 106, 6-[3,4-difluoro-5-(3-methylsulfinylpropoxy)phenyl]-5-methyl-2-pyrimidin-2-yl-7,8-dihydro-5H-pyrido[4,3-d]pyrimidine], the IC50 is 208 nM.

As for `CC1c2cnc(-c3ncccn3)nc2CCN1c1cc(F)c(F)c(OCC(=O)N2CCOCC2)c1` (stereo not shown) [Example 84, 2-[2,3-difluoro-5-(5-methyl-2-pyrimidin-2-yl-7,8-dihydro-5H-pyrido[4,3-d]pyrimidin-6-yl)phenoxy]-1-morpholino-ethanone], the IC50 turned out to be 266 nM.

Regarding `CC1c2cnc(-c3ncccn3)nc2CCN1c1cc(OCCCCCCC(N)=O)cc(F)n1` (single isomer, unassigned; (-)) [Example 156, (−)-7-[[2-fluoro-6-[5-methyl-2-pyrimidin-2-yl-7,8-dihydro-5H-pyrido[4,3-d]pyrimidin-6-yl]-4-pyridyl]oxy]heptanamide], the IC50 came out at 6 nM.

In the case of `CC1c2cnc(-c3ncccn3)nc2CCN1c1cc(F)cc(OCC(F)F)n1` (stereo not shown) [Example 148, 6-[6-(2,2-difluoroethoxy)-4-fluoro-2-pyridyl]-5-methyl-2-pyrimidin-2-yl-7,8-dihydro-5H-pyrido[4,3-d]pyrimidine], the IC50 was 17 nM.

With `CC1c2cnc(-c3ncccn3)nc2CCN1c1cc(F)c(F)c(OCC2CSC2)c1` (stereo not shown) [Example 119, 6-[3,4-difluoro-5-(thietan-3-ylmethoxy)phenyl]-5-methyl-2-pyrimidin-2-yl-7,8-dihydro-5H-pyrido[4,3-d]pyrimidine], the IC50 is 51 nM.

`CC1c2cnc(-c3ncccn3)nc2CCN1c1cc(F)c(F)c(OCCCN2CCNC(=O)C2)c1` (stereo not shown) [Example 107, 4-[3-[2,3-difluoro-5-(5-methyl-2-pyrimidin-2-yl-7,8-dihydro-5H-pyrido[4,3-d]pyrimidin-6-yl)phenoxy]propyl]piperazin-2-one]: the IC50 amounted to 171 nM.

As for `CC1c2cnc(-c3ncccn3)nc2CCN1c1cc(F)c(F)c(OCCCCC(=O)O)c1` (stereo not shown) [Example 63, 5-[2,3-difluoro-5-(5-methyl-2-pyrimidin-2-yl-7,8-dihydro-5H-pyrido[4,3-d]pyrimidin-6-yl)phenoxy]pentanoic acid], the IC50 came to 447 nM.

For the molecule `CC(=O)N1CC(COc2cc(F)nc(N3CCc4nc(-c5ncccn5)ncc4C3C)c2)C1` (stereo not shown) [Example 160, 1-[3-[[2-fluoro-6-(5-methyl-2-pyrimidin-2-yl-7,8-dihydro-5H-pyrido[4,3-d]pyrimidin-6-yl)-4-pyridyl]oxymethyl]azetidin-1-yl]ethanone], the IC50 worked out at 196 nM.

As to `CC1c2cnc(-c3ncccn3)nc2CCN1c1cc(F)c(F)c(OCCCS(N)(=O)=O)c1` (stereo not shown) [Example 97, 3-[2,3-difluoro-5-(5-methyl-2-pyrimidin-2-yl-7,8-dihydro-5H-pyrido[4,3-d]pyrimidin-6-yl)phenoxy]propane-1-sulfonamide], the IC50 is 154 nM.

In the case of `CC1c2cnc(-c3ccccn3)nc2CCN1c1cc(N2CCCC2)cc(F)n1` (stereo not shown) [Example 224, 6-(6-fluoro-4-pyrrolidin-1-yl-2-pyridyl)-5-methyl-2-(2-pyridyl)-7,8-dihydro-5H-pyrido[4,3-d]pyrimidine], the IC50 is 13 nM.

Consider `CC1c2cnc(-c3ncccn3)nc2CCN1c1cc(OCC(N)=O)cc(F)n1` (stereo not shown) [Example 174, 2-[[2-fluoro-6-(5-methyl-2-pyrimidin-2-yl-7,8-dihydro-5H-pyrido[4,3-d]pyrimidin-6-yl)-4-pyridyl]oxy]acetamide], for which the IC50 was 660 nM.

Take `CC1c2cnc(-c3ncccn3)nc2CCN1c1cc(F)c(F)c(OCC2COC2)c1` (stereo not shown) [Example 76, 6-[3,4-difluoro-5-(oxetan-3-ylmethoxy)phenyl]-5-methyl-2-pyrimidin-2-yl-7,8-dihydro-5H-pyrido[4,3-d]pyrimidine]: the IC50 came out at 28 nM.

With `CC(=O)NCCCOc1cc(N2CCc3nc(-c4ncccn4)ncc3C2C)cc(F)c1F` (stereo not shown) [Example 92, N-[3-[2,3-difluoro-5-(5-methyl-2-pyrimidin-2-yl-7,8-dihydro-5H-pyrido[4,3-d]pyrimidin-6-yl)phenoxy]propyl]acetamide], the 50% inhibitory concentration (IC50) came to 54 nM.

Take `CC1c2cnc(-c3ncccn3)nc2CCN1c1cc(F)c(F)c(OCCCN2CCN(C(=O)OC(C)(C)C)CC2)c1` (stereo not shown) [Example 108, tert-butyl 4-[3-[2,3-difluoro-5-(5-methyl-2-pyrimidin-2-yl-7,8-dihydro-5H-pyrido[4,3-d]pyrimidin-6-yl)phenoxy]propyl]piperazine-1-carboxylate]: the concentration for half-maximal inhibition (IC50) came to 84 nM.

In the case of `COc1cc(C)nc(N2CCc3nc(-c4ncccn4)ncc3C2C)c1` (stereo not shown) [Example 161, 6-(4-methoxy-6-methyl-2-pyridyl)-5-methyl-2-pyrimidin-2-yl-7,8-dihydro-5H-pyrido[4,3-d]pyrimidine], the 50% inhibitory concentration (IC50) came to 95 nM.

Take `COc1cc(F)cc(N2CCc3cc(-c4ncccn4)ncc3C2C)c1` (stereo not shown) [Example 135, 2-(3-fluoro-5-methoxy-phenyl)-1-methyl-6-pyrimidin-2-yl-3,4-dihydro-1H-2,7-naphthyridine]: the IC50 was 15 nM.

Consider `CC1c2cnc(-c3ncccn3)nc2CCN1c1cc(OCCCOCC(N)=O)cc(F)n1` (stereo not shown) [Example 163, 2-[3-[[2-fluoro-6-(5-methyl-2-pyrimidin-2-yl-7,8-dihydro-5H-pyrido[4,3-d]pyrimidin-6-yl)-4-pyridyl]oxy]propoxy]acetamide], for which the IC50 was determined as 35 nM.

For `CC1c2cnc(-c3ncccn3)nc2CCN1c1cc(F)c(F)c(OCCCNS(=O)(=O)C2CC2)c1` (stereo not shown) [Example 93, N-[3-[2,3-difluoro-5-(5-methyl-2-pyrimidin-2-yl-7,8-dihydro-5H-pyrido[4,3-d]pyrimidin-6-yl)phenoxy]propyl]cyclopropanesulfonamide], the 50% inhibitory concentration (IC50) came to 61 nM.

As to `CC1c2cnc(-c3ccccn3)nc2CCN1c1cc(F)c(F)c(OCCCS(C)(=O)=O)c1` (stereo not shown) [Example 33, 6-[3,4-difluoro-5-(3-methylsulfonylpropoxy)phenyl]-5-methyl-2-(2-pyridyl)-7,8-dihydro-5H-pyrido[4,3-d]pyrimidine], the half-maximal inhibitory concentration (IC50) was found to be 48 nM.

As to `COc1cc(N2CCc3nc(-c4ccccn4)ncc3C2CC(=O)O)cc(F)c1F` (stereo not shown) [Example 37, 2-[6-(3,4-difluoro-5-methoxy-phenyl)-2-(2-pyridyl)-7,8-dihydro-5H-pyrido[4,3-d]pyrimidin-5-yl]acetic acid], the IC50 is 4860 nM.

With `COc1cc(N2CCc3nc(-c4ccccn4)ncc3C2C2CC2)cc(F)c1F` (stereo not shown) [Example 18], the IC50 came to 363 nM.

For the molecule `COCCCN(C)S(=O)(=O)c1cc(F)cc(N2CCc3nc(-c4ncccn4)ncc3C2C)c1` (stereo not shown) [Example 183, 3-fluoro-N-(3-methoxypropyl)-N-methyl-5-(5-methyl-2-pyrimidin-2-yl-7,8-dihydro-5H-pyrido[4,3-d]pyrimidin-6-yl)benzenesulfonamide], the IC50 was 838 nM.
